Patent publication US9624208B2, “Benzoxazolinone compounds with selective activity in voltage-gated sodium channels” (Merck Sharp & Dohme Corp., priority 2012, dated 2017)
Values joined by “and” are separate entries in the source; they are usually repeats but may differ in a detail not shown here. Equal entries are not always repeated.

Legend:
human Nav1.7 = biological target: T1, human Nav1.7 (Homo sapiens, UniProt Q15858); test: PatchXpress sodium current measurement, inactivated state block, Nav1.7; assay type: cell-based; conditions: channels stably expressed in HEK 293 cells, double-pulse protocol, 22° C., read-out: potency for the Nav 1.7 sodium ion channel (1.7=)
T1 construct: expressed in transfected cells
Description: (§1) Cell Based Assays for Nav 1.7 and Nav 1.5 Activity
(§2) Compounds were tested on human Nav1.7 and Nav1.5 channels stably expressed in HEK 293 cells.
(§3) Sodium Current Measurements on the PatchXpress 7000:
(§4) To measure inactivated state block of sodium channels, test compounds were characterized in an automated PatchXpress® assay (Molecular Devices) using a double-pulse protocol on human Nav1.7 and Nav1.5 channels stably expressed in HEK 293 cells. Cells were held at a potential 20 mV negative to the potential at which ˜50% of the channels are inactivated. A 8000 ms pre-pulse 7 mV positive to the potential at which ˜50% of the channels are inactivated was given followed by a hyperpolarizing 2 ms pulse to −120 mV and a 20 ms test pulse to −20 mV. The protocol was applied to cells in the absence, presence of compound and after washout. The temperature of PatchXpress® instruments was maintained at 22° C. The following recording solutions were used. Internal solution (mM): 30 CsCl, 5 HEPES, 10 EGTA, 120 CsF, 5 NaF, 2 MgCl2, pH 7.3 with CsOH. External solution (mM): 120 NMDG, 40 NaCl, 1 KCl, 0.5 MgCl2, 5 HEPES, 2.7 CaCl2, pH 7.5 with NMDG-OH. Estimated IC50 values were calculated based on at least two compound concentrations tested. For all electrophysiology experiments, offline analysis was used to correct for current rundown and to determine percent inhibition as a function of drug concentration. IC50 values were determined by fitting to the Hill equation.

human Nav1.5 = biological target: T2, human Nav1.5 (Homo sapiens, UniProt Q14524); test: PatchXpress sodium current measurement, inactivated state block, Nav1.5; assay type: cell-based; conditions: determined by PatchXpress measurement, HEK 293 cells
T2 construct: expressed in transfected cells
Description: as §1, §2, §3, §4

T2 sequence (Q14524 whole entry): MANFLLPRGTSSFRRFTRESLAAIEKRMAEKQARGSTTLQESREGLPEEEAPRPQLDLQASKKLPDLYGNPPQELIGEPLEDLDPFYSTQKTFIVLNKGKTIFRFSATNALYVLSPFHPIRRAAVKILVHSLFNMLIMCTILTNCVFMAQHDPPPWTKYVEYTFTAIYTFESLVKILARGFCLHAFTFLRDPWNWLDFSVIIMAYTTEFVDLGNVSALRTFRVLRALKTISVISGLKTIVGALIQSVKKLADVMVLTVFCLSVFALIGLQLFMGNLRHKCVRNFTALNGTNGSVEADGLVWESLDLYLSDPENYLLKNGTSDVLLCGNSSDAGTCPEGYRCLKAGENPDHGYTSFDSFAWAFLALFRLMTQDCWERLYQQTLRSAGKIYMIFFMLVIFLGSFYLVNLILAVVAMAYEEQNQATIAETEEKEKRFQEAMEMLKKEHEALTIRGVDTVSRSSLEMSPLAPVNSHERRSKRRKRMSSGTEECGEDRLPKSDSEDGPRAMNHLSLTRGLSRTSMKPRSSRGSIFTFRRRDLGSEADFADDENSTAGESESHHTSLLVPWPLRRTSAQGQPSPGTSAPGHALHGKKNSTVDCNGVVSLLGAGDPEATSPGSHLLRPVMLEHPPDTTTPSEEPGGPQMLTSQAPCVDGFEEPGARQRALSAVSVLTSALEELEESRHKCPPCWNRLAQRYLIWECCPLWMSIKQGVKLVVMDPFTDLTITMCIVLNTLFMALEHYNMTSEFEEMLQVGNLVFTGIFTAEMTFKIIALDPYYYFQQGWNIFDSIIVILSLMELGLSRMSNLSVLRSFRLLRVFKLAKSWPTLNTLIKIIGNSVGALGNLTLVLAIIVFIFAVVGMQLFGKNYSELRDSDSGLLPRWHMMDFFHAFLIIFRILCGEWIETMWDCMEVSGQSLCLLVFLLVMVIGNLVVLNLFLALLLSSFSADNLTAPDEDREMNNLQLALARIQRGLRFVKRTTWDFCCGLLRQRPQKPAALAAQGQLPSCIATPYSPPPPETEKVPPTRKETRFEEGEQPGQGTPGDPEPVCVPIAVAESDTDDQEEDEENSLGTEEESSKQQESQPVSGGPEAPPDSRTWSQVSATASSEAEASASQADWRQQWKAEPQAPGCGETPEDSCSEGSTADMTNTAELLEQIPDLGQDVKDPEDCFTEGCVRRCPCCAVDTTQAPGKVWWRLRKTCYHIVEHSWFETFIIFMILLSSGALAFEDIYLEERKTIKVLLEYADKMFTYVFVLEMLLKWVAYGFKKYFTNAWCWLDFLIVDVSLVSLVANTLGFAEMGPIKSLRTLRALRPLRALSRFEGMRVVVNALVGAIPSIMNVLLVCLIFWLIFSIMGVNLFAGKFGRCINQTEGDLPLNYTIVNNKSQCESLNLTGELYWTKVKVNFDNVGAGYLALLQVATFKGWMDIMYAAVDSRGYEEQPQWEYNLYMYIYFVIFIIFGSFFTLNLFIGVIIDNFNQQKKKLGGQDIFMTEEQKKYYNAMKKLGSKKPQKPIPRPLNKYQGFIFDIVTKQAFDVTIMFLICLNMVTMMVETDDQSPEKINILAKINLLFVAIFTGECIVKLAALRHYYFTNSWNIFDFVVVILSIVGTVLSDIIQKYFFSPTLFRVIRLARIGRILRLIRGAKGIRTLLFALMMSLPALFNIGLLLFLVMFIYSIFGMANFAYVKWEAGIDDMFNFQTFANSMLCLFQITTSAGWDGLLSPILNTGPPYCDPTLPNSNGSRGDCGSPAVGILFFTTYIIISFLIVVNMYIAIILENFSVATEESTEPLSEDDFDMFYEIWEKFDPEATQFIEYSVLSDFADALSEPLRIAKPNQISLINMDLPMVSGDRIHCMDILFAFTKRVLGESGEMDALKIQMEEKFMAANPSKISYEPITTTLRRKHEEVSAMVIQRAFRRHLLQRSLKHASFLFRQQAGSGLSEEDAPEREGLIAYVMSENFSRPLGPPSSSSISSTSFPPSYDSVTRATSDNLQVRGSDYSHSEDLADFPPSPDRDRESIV
T1 sequence (Q15858 whole entry): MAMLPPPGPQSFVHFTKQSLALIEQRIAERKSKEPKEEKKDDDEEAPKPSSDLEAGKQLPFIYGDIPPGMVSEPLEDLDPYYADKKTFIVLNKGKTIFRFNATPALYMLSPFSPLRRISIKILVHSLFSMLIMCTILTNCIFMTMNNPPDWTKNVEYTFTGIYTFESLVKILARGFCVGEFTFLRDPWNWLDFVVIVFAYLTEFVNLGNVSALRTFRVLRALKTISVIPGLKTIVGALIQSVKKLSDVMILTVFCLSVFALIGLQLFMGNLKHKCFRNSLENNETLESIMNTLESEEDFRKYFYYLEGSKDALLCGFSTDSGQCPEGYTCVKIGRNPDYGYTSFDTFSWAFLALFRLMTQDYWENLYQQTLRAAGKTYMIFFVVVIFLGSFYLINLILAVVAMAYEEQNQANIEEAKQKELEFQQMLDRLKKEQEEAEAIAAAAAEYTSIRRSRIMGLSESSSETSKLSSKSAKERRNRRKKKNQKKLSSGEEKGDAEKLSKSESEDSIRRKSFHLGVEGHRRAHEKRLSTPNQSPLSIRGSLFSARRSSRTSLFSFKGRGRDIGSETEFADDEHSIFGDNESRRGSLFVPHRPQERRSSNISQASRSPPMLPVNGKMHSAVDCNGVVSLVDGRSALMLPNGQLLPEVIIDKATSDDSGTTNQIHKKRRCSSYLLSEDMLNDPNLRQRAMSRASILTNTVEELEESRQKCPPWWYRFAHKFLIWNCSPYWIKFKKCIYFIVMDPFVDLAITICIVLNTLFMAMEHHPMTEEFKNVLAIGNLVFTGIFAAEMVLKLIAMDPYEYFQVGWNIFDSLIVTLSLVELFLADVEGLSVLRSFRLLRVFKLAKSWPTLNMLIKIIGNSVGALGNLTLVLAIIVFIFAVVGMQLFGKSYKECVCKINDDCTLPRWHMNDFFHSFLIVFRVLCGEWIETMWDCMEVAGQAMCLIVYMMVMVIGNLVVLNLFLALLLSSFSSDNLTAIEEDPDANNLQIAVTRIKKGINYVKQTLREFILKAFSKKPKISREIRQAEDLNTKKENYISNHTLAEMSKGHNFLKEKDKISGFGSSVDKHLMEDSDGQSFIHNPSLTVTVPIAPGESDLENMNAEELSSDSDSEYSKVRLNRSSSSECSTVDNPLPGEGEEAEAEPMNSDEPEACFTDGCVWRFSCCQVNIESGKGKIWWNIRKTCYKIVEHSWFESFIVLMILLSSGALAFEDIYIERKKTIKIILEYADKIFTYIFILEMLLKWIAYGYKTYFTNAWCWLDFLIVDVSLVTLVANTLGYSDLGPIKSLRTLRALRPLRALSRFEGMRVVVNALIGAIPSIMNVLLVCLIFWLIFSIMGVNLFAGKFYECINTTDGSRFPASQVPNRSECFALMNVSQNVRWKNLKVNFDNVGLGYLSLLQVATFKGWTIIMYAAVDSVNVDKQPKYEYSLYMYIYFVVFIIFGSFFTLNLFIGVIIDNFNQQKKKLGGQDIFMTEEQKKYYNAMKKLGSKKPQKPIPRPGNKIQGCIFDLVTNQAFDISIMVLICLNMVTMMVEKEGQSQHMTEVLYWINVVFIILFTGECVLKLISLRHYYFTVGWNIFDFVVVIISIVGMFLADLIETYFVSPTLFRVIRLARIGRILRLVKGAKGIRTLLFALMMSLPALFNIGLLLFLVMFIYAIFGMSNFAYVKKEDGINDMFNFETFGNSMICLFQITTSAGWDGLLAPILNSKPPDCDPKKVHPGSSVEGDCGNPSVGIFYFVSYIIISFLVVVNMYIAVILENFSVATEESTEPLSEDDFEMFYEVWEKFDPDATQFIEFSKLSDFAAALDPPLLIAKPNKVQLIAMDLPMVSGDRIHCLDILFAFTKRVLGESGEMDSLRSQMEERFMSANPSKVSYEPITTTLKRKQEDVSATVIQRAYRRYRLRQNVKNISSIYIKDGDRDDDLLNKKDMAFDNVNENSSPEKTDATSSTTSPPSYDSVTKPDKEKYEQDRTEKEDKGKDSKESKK

**Q.** For `C[C@H](c1ccccc1C#C[C@H]1CCCC[C@@H]1N)n1c(=O)oc2cc(S(=O)(=O)Nc3cccc(F)n3)c(F)cc21` (mixture of isomers) [Ex8-5, 3-[(1R)-1-(2-{[(1R,2S and 1S, 2R)-2-aminocyclohexyl]ethynyl}phenyl)ethyl]-5-fluoro-N-(6-fluoropyridin-2-yl)-2-oxo-2,3-dihydro-1,3-benzoxazole-6-sulfonamide], which IC50 (human Nav1.7) is on record?
**A.** 0.025 µM

**Q.** And the “ratio of Nav 1.5:Nav 1.7 potency” value (human Nav1.5)?
**A.** 714

**Q.** What does the source list for `Cl.O=c1oc2cc(S(=O)(=O)Nc3cccc(F)n3)c(F)cc2n1Cc1cccc2c1CNCC2F` (racemic) [Ex5-9, (+/−)-5-Fluoro-3-((4-fluoro-1,2,3,4-tetrahydroisoquinolin-8-yl)methyl)-N-(6-fluoropyridin-2-yl)-2-oxo-2,3-dihydrobenzo[d]oxazole-6-sulfonamide hydrochloride]?
**A.** IC50 (human Nav1.7): 1.14 µM; ratio of Nav 1.5:Nav 1.7 potency (human Nav1.5): 26

**Q.** Which IC50 (human Nav1.7) does the source give for `Cl.NC1CCc2cccc(Cn3c(=O)oc4cc(S(=O)(=O)Nc5cccc(F)n5)c(F)cc43)c2C1` (single isomer, unassigned) [Ex13-4, (S or R)-3-((7-Amino-5,6,7,8-tetrahydronaphthalen-1-yl)methyl)-5-fluoro-N-(6-fluoropyridin-2-yl)-2-oxo-2,3-dihydrobenzo[d]oxazole-6-sulfonamide hydrochloride] here?
**A.** 0.089 µM

**Q.** What about the “ratio of Nav 1.5:Nav 1.7 potency” value (human Nav1.5) of the same compound?
**A.** 304

**Q.** Which IC50 (human Nav1.7) does the source give for `NC1CCc2cccc(Cn3c(=O)oc4cc(S(=O)(=O)Nc5cccc(F)n5)c(F)cc43)c2C1` (single isomer, unassigned) [Ex13-5, (R or S)-3-[(7-amino-5,6,7,8-tetrahydronaphthalen-1-yl)methyl]-5-fluoro-N-(6-fluoropyridin-2-yl)-2-oxo-2,3-dihydro-1,3-benzoxazole-6-sulfonamide] here?
**A.** 0.04 µM

**Q.** What about the “ratio of Nav 1.5:Nav 1.7 potency” value (human Nav1.5) of the same compound?
**A.** 914

**Q.** Which results are given for `NC1CCc2cccc(Cn3c(=O)oc4cc(S(=O)(=O)Nc5cccc(F)n5)ccc43)c2C1` (single isomer, unassigned) [Ex13-6, (S or R)-3-[(7-amino-5,6,7,8-tetrahydronaphthalen-1-yl)methyl]-N-(6-fluoropyridin-2-yl)-2-oxo-2,3-dihydro-1,3-benzoxazole-6-sulfonamide]?
**A.** IC50 (human Nav1.7): 0.147 µM; ratio of Nav 1.5:Nav 1.7 potency (human Nav1.5): 43

**Q.** Which results are given for `Cc1cc2c(cc1S(=O)(=O)Nc1cccc(F)n1)oc(=O)n2Cc1cccc2c1CC(N)CC2` (single isomer, unassigned) [Ex17-5, (R or S)-3-[(7-amino-5,6,7,8-tetrahydronaphthalen-1-yl)methyl]-N-(6-fluoropyridin-2-yl)-5-methyl-2-oxo-2,3-dihydro-1,3-benzoxazole-6-sulfonamide]?
**A.** IC50 (human Nav1.7): 0.024 µM; ratio of Nav 1.5:Nav 1.7 potency (human Nav1.5): 310

**Q.** Which results are given for `Cc1cc2c(cc1S(=O)(=O)Nc1cccc(F)n1)oc(=O)n2Cc1cccc2c1CC(N)CC2` (single isomer, unassigned) [Ex17-6, (S or R)-3-[(7-amino-5,6,7,8-tetrahydronaphthalen-1-yl)methyl]-N-(6-fluoropyridin-2-yl)-5-methyl-2-oxo-2,3-dihydro-1,3-benzoxazole-6-sulfonamide]?
**A.** IC50 (human Nav1.7): 0.012 µM; ratio of Nav 1.5:Nav 1.7 potency (human Nav1.5): 178

**Q.** What does the source list for `O=c1oc2cc(S(=O)(=O)Nc3cccc(F)n3)c(F)cc2n1Cc1cccc2c1CNCC2F` (single isomer, unassigned; enantiomer 1) [Ex5-10, (R or S)-5-fluoro-N-(6-fluoropyridin-2-yl)-3-[(4-fluoro-1,2,3,4-tetrahydroisoquinolin-8-yl)methyl]-2-oxo-2,3-dihydro-1,3-benzoxazole-6-sulfonamide (enantiomer 1)]?
**A.** IC50 (human Nav1.7): 0.961 µM; ratio of Nav 1.5:Nav 1.7 potency (human Nav1.5): > 31

**Q.** How did the IC50 (human Nav1.7) turn out when `C[C@H](c1ccccc1CCN)n1c(=O)oc2cc(S(=O)(=O)Nc3cccc(F)n3)c(F)cc21` [Ex24-2, 3-{(1R)-1-[2-(2-aminoethyl)phenyl]ethyl}-5-fluoro-N-(6-fluoropyridin-2-yl)-2-oxo-2,3-dihydro-1,3-benzoxazole-6-sulfonamide] was run?
**A.** 0.027 µM and 0.018 µM
